target: T1, human GPR120 (Homo sapiens, UniProt Q5NUL3); test: Intracellular Ca2+ assay in human GPR120 stable cell line (HEK293 co-expressing Gqi5), Flexstation; assay type: cell-based; conditions: % activity at 5 μM compared to the maximal activity of GW9508 at 6.7 μM (=100%); human GPR120 cells, Ca2+ fluorescence
T1 construct: host or cells: HEK293 cells co-expressing Gqi5
T1 sequence (Q5NUL3 1-361): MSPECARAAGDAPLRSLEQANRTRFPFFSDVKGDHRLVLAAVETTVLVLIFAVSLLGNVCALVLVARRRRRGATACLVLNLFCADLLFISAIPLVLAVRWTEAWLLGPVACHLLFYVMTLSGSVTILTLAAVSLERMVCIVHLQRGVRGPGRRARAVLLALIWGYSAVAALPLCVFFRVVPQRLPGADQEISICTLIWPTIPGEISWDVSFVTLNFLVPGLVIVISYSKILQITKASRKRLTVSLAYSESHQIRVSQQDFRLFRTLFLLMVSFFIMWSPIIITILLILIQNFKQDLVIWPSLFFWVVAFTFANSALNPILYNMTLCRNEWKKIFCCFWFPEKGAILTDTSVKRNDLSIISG
Procedure: Human GPR120 stable cell line was purchased from Multispan Inc (26219 Eden Landing Road, Hayward, Calif. 94545). This GPR120 cell line was generated in HEK293 cells co-expressing Gqi5. In this cell line, the Flag epitope tag (DYKDDDDK) was fused to the amino terminus of human GPR120 protein.
The concentration of intracellular Ca^2+ was measured as described below. Human GPR120 cells were plated in 96 well plates (Poly-D-Lysine coated black/clear Plate, Greiner Bio-One) at 70,000 cells per well and cultured overnight in conditions of 37° C. and 5% CO2. A Ca^2+assay dye stock solution was prepared by adding 10 mL of assay buffer (HBSS/20 mM HEPES, pH 7.4) to FLIPR Calcium 4 Assay Bulk Kit (Molecular Devices). The 10 mL of Ca^2+ assay dye solution was prepared by further diluting 0.5 mL of Ca^2+ assay dye stock solution with 10 mL of assay buffer. The medium of the cells was removed and immediately 100 μL of the Ca^2+ assay dye solution was dispensed into each well followed by incubation at 37° C. and 5% CO2 for 50 minutes to incorporate the Ca^2+ dye into the cells. The cell plate was then placed in the Flexstation (Molecular Devices) for 20 minutes at 37° C. Compounds were dissolved in 100% DMSO and diluted to desired concentrations with assay buffer and placed in the Flexstation simultaneously with the cell plate for 20 minute incubation at 37° C. prior to reading. Fluorescence intensity was measured immediately following compound addition (25 μL/well) on the Flexstation at an excitation wavelength of 485 nm and an emission wavelength of 525 with 515 nm auto cutoff. The resulting increase in fluorescence intensities corresponds to increases in intracellular Ca^2+ levels.
Compounds were dissolved in 100% DMSO to a concentration of 20 mM to provide stock solutions. To determine activity against human GPR120, compounds were added with human GPR120 stably expressing cells (described above), at eight desired concentrations ranging from 0.00001 to 20 μM, in 96 well plates and fluorescence intensities were measured for 90 seconds with 2-second intervals. An EC50 value (concentration of the GPR120 agonist where 50% of the agonist's maximal activity is observed) was calculated using the changes (Max−Min) of fluorescence intensity.
To determine percent activity for a tested compound, the fluorescence intensity value obtained at a particular concentration were compared to the maximal fluorescence intensity value obtained for reference compound GW9508 (4-[[(3-phenoxyphenyl)methyl]amino]benzene propanoic acid; British Journal of Pharmacology 2006 148, 619-628) or the compound of Example 25. When GW9508 was used as the reference compound, the maximal activity of GW9508 at 6.7 μM was designated as 100% activity. When the compound of Example 25 was used as the reference compound, the maximal activity of the compound of Example 25 at 2.5 μM was designated as 100% activity. Typically, the GW9508 activity reached a maximum at a concentration of approximately 6.7 μM and typically the compound of Example 25 reached a maximum activity at approximately 2.5 μM.

% Activity (GW9508 Reference Compound) [%]	SMILES
140.94	CC(Cc1cc(F)c(OCc2c(F)c(F)cc3c2OC(C)(C)C3)c(F)c1)C(=O)O (stereo not shown) [Example 42, 3-(4-((5,6-difluoro-2,2-dimethyl-2,3-dihydrobenzofuran-7-yl)methoxy)-3,5-difluorophenyl)-2-methylpropanoic acid]
157.14	CC(Cc1ccc(COc2cccc3c2OC(C)(C)C3)c(F)c1)C(=O)O (stereo not shown) [Example 44, 3-(4-(((2,2-dimethyl-2,3-dihydrobenzofuran-7-yl)oxy)methyl)-3-fluorophenyl)-2-methylpropanoic acid]
79.58	CC(Cc1ccc(OCc2cc(F)cc3c2OCOC3)cc1)C(=O)O (stereo not shown) [Example 45, 3-(4-((6-fluoro-4H-benzo[d][1,3]dioxin-8-yl)methoxy)phenyl)-2-methylpropanoic acid]
113.55	Cc1cc(OCc2cc(F)cc3c2OC(C)(C)C3)ccc1CCC(=O)O [Example 46, 3-(4-((5-fluoro-2,2-dimethyl-2,3-dihydrobenzofuran-7-yl)methoxy)-2-methylphenyl)propanoic acid]
111.18	CC1(C)Cc2cc(F)cc(COc3ccc(CCC(=O)O)c(Cl)c3)c2O1 [Example 47, 3-(2-chloro-4-((5-fluoro-2,2-dimethyl-2,3-dihydrobenzofuran-7-yl)methoxy)phenyl)propanoic acid]
129.78	COc1cc(OCc2cc(F)cc3c2OC(C)(C)C3)ccc1CCC(=O)O [Example 50, 3-(4-((5-fluoro-2,2-dimethyl-2,3-dihydrobenzofuran-7-yl)methoxy)-2-methoxyphenyl)propanoic acid]
143.19	CC1(C)Cc2cc(Cl)cc(COc3ccc(CCC(=O)O)c(F)c3)c2O1 [Example 53, 3-(4-((5-chloro-2,2-dimethyl-2,3-dihydrobenzofuran-7-yl)methoxy)-2-fluorophenyl)-propanoic acid]
138.97	CC1(C)Cc2cc(Cl)cc(COc3cc(F)c(CCC(=O)O)c(F)c3)c2O1 [Example 54, 3-(4-((5-chloro-2,2-dimethyl-2,3-dihydrobenzofuran-7-yl)methoxy)-2,6-difluorophenyl)propanoic acid]
108.51	COc1cc(CCC(=O)O)c(Br)cc1OCc1cc(F)cc2c1OC(C)(C)C2 [Example 56, 3-(2-bromo-4-((5-fluoro-2,2-dimethyl-2,3-dihydrobenzofuran-7-yl)methoxy)-5-methoxyphenyl)propanoic acid]

The remaining lines, values behind:

SMILES	% Activity (GW9508 Reference Compound) [%]
CC1(C)Cc2cccc(COc3c(F)cc(C4CC4C(=O)O)cc3F)c2O1 (stereo not shown) [Example 24, 2-(4-((2,2-dimethyl-2,3-dihydrobenzofuran-7-yl)methoxy)-3,5-difluorophenyl)cyclopropanecarboxylic acid]	100.3
CC1(C)Cc2cccc(COc3c(F)cc(CCC(=O)O)cc3F)c2O1 [Example 25, 3-(4-((2,2-dimethyl-2,3-dihydrobenzofuran-7-yl)methoxy)-3,5-difluorophenyl)propanoic acid]	101.8
CC(Cc1ccc(OCc2cc(Cl)cc3c2OC(C)(C)C3)cc1Cl)C(=O)O (stereo not shown) [Example 26, 3-(2-chloro-4-((5-chloro-2,2-dimethyl-2,3-dihydrobenzofuran-7-yl)methoxy)phenyl)-2-methylpropanoic acid]	163.7
CC1(C)Cc2c(F)ccc(COc3c(F)cc(C4CC4C(=O)O)cc3F)c2O1 (stereo not shown) [Example 27, 2-(3,5-difluoro-4-((4-fluoro-2,2-dimethyl-2,3-dihydrobenzofuran-7-yl)methoxy)phenyl)cyclopropanecarboxylic acid]	143.8489
CC(Cc1cc(F)c(OCc2ccc(F)c3c2OC(C)(C)C3)c(F)c1)C(=O)O (stereo not shown) [Example 28, 3-(3,5-difluoro-4-((4-fluoro-2,2-dimethyl-2,3-dihydrobenzofuran-7-yl)methoxy)phenyl)-2-methylpropanoic acid]	109.6
CC(Cc1ccc(OCc2ccc(F)c3c2OC(C)(C)C3)c(F)c1)C(=O)O (stereo not shown) [Example 29, 3-(3-fluoro-4-((4-fluoro-2,2-dimethyl-2,3-dihydrobenzofuran-7-yl)methoxy)phenyl)-2-methylpropanoic acid]	133.5
CC(Cc1ccc(OCc2ccc(F)c3c2OC(C)(C)C3)cc1)C(=O)O (stereo not shown) [Example 30, 3-(4-((4-fluoro-2,2-dimethyl-2,3-dihydrobenzofuran-7-yl)methoxy)phenyl)-2-methylpropanoic acid]	176.6
CC1(C)Cc2c(C(F)(F)F)ccc(COc3c(F)cc(C4CC4C(=O)O)cc3F)c2O1 (stereo not shown) [Example 31, 2-(4-((2,2-dimethyl-4-(trifluoromethyl)-2,3-dihydrobenzofuran-7-yl)methoxy)-3,5-difluorophenyl)cyclopropanecarboxylic acid]	149.5
CC(Cc1cc(F)c(OCc2ccc(C(F)(F)F)c3c2OC(C)(C)C3)c(F)c1)C(=O)O (stereo not shown) [Example 32, 3-(4-((2,2-dimethyl-4-(trifluoromethyl)-2,3-dihydrobenzofuran-7-yl)methoxy)-3,5-difluorophenyl)-2-methylpropanoic acid]	143.1
CC(Cc1ccc(OCc2ccc(C(F)(F)F)c3c2OC(C)(C)C3)c(F)c1)C(=O)O (stereo not shown) [Example 33, 3-(4-((2,2-dimethyl-4-(trifluoromethyl)-2,3-dihydrobenzofuran-7-yl)methoxy)-3-fluorophenyl)-2-methylpropanoic acid]	142.9517
CC(Cc1ccc(OCc2ccc(C(F)(F)F)c3c2OC(C)(C)C3)cc1)C(=O)O (stereo not shown) [Example 34, 3-(4-((2,2-dimethyl-4-(trifluoromethyl)-2,3-dihydrobenzofuran-7-yl)methoxy)phenyl)-2-methylpropanoic acid]	117.9
CC1(C)Cc2cc(Cl)cc(COc3ccc4c(c3)CCC4CC(=O)O)c2O1 (stereo not shown) [Example 36, 2-(5-((5-chloro-2,2-dimethyl-2,3-dihydrobenzofuran-7-yl)methoxy)-2,3-dihydro-1H-inden-1-yl)acetic acid]	122.9
CC1(C)Cc2cc(F)cc(COc3ccc4c(c3)CCC4CC(=O)O)c2O1 (stereo not shown) [Example 37, 2-(5-((5-fluoro-2,2-dimethyl-2,3-dihydrobenzofuran-7-yl)methoxy)-2,3-dihydro-1H-inden-1-yl)acetic acid]	124.7
CC(Cc1cc(F)c(OCc2cc(Cl)cc3c2OC(C)(C)C3)c(F)c1)C(=O)O (stereo not shown) [Example 38, 3-(4-((5-chloro-2,2-dimethyl-2,3-dihydrobenzofuran-7-yl)methoxy)-3,5-difluorophenyl)-2-methylpropanoic acid]	83.43
CC(Cc1cc(F)c(OCc2cccc3c2OC(C)C3C)c(F)c1)C(=O)O (stereo not shown) [Example 40, 3-(4-((2,3-dimethyl-2,3-dihydrobenzofuran-7-yl)methoxy)-3,5-difluorophenyl)-2-methylpropanoic acid]	95.33
CC1(C)Cc2cc(Cl)cc(COc3c(F)cc(C4CC4CC(=O)O)cc3F)c2O1 (stereo not shown) [Example 41, 2-(2-(4-((5-chloro-2,2-dimethyl-2,3-dihydrobenzofuran-7-yl)methoxy)-3,5-difluorophenyl)cyclopropyl)acetic acid]	116.46

same assay, conditions: human GPR120 cells, Ca2+ fluorescence; reference compounds, typical value

concentration at which activity reached a maximum	SMILES
approximately 2.5 μM	CC1(C)Cc2cccc(COc3c(F)cc(CCC(=O)O)cc3F)c2O1 [Example 25, 3-(4-((2,2-dimethyl-2,3-dihydrobenzofuran-7-yl)methoxy)-3,5-difluorophenyl)propanoic acid]

same assay, conditions: human GPR120 stably expressing cells, Ca2+ fluorescence (Max-Min), eight concentrations 0.00001 to 20 μM

EC50 [µM]	SMILES
> 10	CC(Cc1cc(F)c(OCc2cccc3c2OC(C)C3C)c(F)c1)C(=O)O (stereo not shown) [Example 40, 3-(4-((2,3-dimethyl-2,3-dihydrobenzofuran-7-yl)methoxy)-3,5-difluorophenyl)-2-methylpropanoic acid]
> 10	CC1(C)Cc2cc(Cl)cc(COc3c(F)cc(C4CC4CC(=O)O)cc3F)c2O1 (stereo not shown) [Example 41, 2-(2-(4-((5-chloro-2,2-dimethyl-2,3-dihydrobenzofuran-7-yl)methoxy)-3,5-difluorophenyl)cyclopropyl)acetic acid]
